Key:
[1] = tested on: p38; test: Immunoblotting of p38 phosphorylation in OPM2 and JJN3 cells; assay type: cell-based, human; conditions: OPM2 and JJN3, 24 hr
Procedure: (§1) (B) LP1 and JJN3 cells were starved overnight, then treated with C98 or S14161 for 2 hr, followed by IGF-1 (100 ng/mL) for 15 min. Cells were then prepared for the analysis of the expression of p-AKT, t-AKT, p-IGF-1R, and IGF-1R by immunoblotting. (C) OPM2 and JJN3 cells were treated with increasing concentrations of C98 for 24 hr before being applied to immunoblotting against p-ERK, t-ERK, p-P38, t-P38, p-Src, t-Src, p-STAT3, or t-STAT3. GAPDH and β-actin were used as loading controls.
(§2) To further clarify the effects of C98 on other signaling pathways associated with PI3K signaling, we evaluated ERK and p38, both of which mediate extracellular signaling similar to PI3K. […] We also checked the phosphorylation status of STAT3, a signal transducer and activator of transcription. […] Therefore, C98 had no effects on these kinases/proteins associated with PI3K signaling.
(§3) The immunoblotting assays were performed as described previously. IRDye 680 goat anti-mouse and IRDye 800CW goat anti-rabbit antibodies were from Odyssey (San Ramon, CA, USA).

[2] = molecular target: recombinant human PI3K isoform γ (Homo sapiens, UniProt P48736); test: Kinase activity in cell-free assay (HotSpot), PI3Kγ; assay type: biochemical; conditions: read-out: IC50 against PI3K γ isoform
Procedure: (§4) To confirm this hypothesis, the inhibitory potency of C98 on PI3K enzymes was measured in a cell-free system with individual recombinant human PI3K isoforms. […] To further evaluate its specificity on PI3K, the effects of C98 on other associated kinases AKT, PDK1, and mTOR were also measured in the enzymatic systems. […] Therefore, C98 preferred to inhibit PI3K activity.
Figure 1 C98 inhibits PI3K activity (A) Chemical structure of C98. (B) OPM2 cells were starved overnight and then treated with six compounds identified from the virtual screening for 2 hr, followed by IGF-1 stimulation for 15 min. Cell lysates were prepared for AKT expression and phosphorylation analyses. The known PI3K inhibitor S14161 was used as a positive control. (C) OPM2 cells were starved overnight, then treated with C98 at indicated concentration (25, 50 and 100 μM) or S14161 (100 μM) for 2 hr, followed by IGF-1 (100 ng/mL) stimulation for 15 min Cell lysates were prepared for AKT expression and phosphorylation analyses. […] Activity of each kinase was determined with HotSpot technology as described in the Methods section “Kinase activity in cell-free assay”. […]

[3] = tested on: c-Src; test: Immunoblotting of c-Src phosphorylation in OPM2 and JJN3 cells; assay type: cell-based, human; conditions: OPM2 and JJN3, 24 hr
Procedure: as §1, §2, §3

[4] = tested on: AKT; test: Kinase activity in cell-free assay, AKT; assay type: biochemical; conditions: enzymatic system; read-out: IC50 on AKT activation
Procedure: as §4
(§5) Kinase activity in the presence of C98 was performed by using the HotSpot technology (Reaction Biology Corp., Malvern, PA, USA) as described previously.

[5] = tested on: OPM2 and RPMI-8226 cells; test: MTT assay with IGF-1 rescue; assay type: cell-based; conditions: OPM2 and RPMI-8226, IGF-1 alone or together with C98, 48 hr
Procedure: (§6) To answer whether C98 could induce apoptosis in other MM cells, 5 more MM cells were subject to the study. […] Cell apoptosis induced by C98 was further confirmed by the increased fraction of positive cells stained with Annexin V (Figure 5). To show whether activated PI3K signals can rescue C98 effects on MM cells, both OPM2 and RPMI-8226 cells were treated with IGF-1 alone or together with C98 for 48 hr followed by MTT assay.
Cell viability was assessed with the MTT assay as reported previously. To show apoptosis, MM cells were incubated for 24 hr with increasing concentrations of C98 before being stained with Annexin V-FITC and propidium iodide (BioVision Milpitas, CA). Apoptotic cells were measured on a flow cytometer (FACSCalibur®, Becton Dickinson) as reported as previously. […]
www.impactjournals.com/oncotarget/ Oncotarget, Supplementary Materials 2014
Supplementary Figure S3: IGF-1 rescues C98-decreased MM cell proliferation. OPM2 and RPMI-8226 cells were treated with IGF-1 alone or increased C98 for 48 hr, followed by MTT assay. […]

[6] = tested on: PI3K/AKT/mTOR pathway in OPM2 and JJN3 cells; test: Immunoblotting of PI3K/AKT/mTOR pathway in OPM2 and JJN3 cells; assay type: cell-based, human; conditions: OPM2 and JJN3, increasing concentration, 24 hr
Procedure: Subsequently, the inhibition of C98 on the PI3K signaling pathway was evaluated in MM cell lines OPM2 and JJN3. […] Because all these kinases are downstream signaling proteins in the PI3K pathway while C98 had no effects on AKT and mTOR in the cell free assay, the inhibition of C98 on these kinases was probably due to its suppression on PI3K.
as §1, §3

[7] = tested on: JJN3 xenograft; test: JJN3 myeloma xenograft in nude mice; assay type: in vivo
[8] = tested on: JJN3 cells; test: Immunoblotting of caspase-3 activation in JJN3 cells; assay type: cell-based, human; conditions: JJN3, 0-20 μM 24 hr or 10 μM 0-9 hr
Procedure: as §6
Figure 4 C98 activates apoptotic signaling in MM cells (A) JJN3 cells were treated with C98 (0, 2.5, 5, 10, 20 μM) for 24 hr or 10 μM for 0, 3, 6, or 9 hr, followed by immunoblotting for the expression of p-AKT, t-AKT, pro-caspase-3 (Pro-Casp3), and cleaved caspase-3 (Cle-Casp3). (B) KMS11, LP1, OCI-My5, OPM2, JJN3, and RPMI-8226 were treated with C98 (20 μM) for 24 hr, followed by immunoblotting for the expression of PARP, Pro-Casp3, and Cle-Casp3. GAPDH was used as a loading control.
as §3

[9] = tested on: T1, PDK1; test: Kinase activity in cell-free assay, PDK1; assay type: biochemical; conditions: enzymatic system, even at a concentration of 300 μM
T1 construct: purchased Reaction Biology Corp., Malvern, PA, USA
Procedure: as §4, §5

[10] = tested on: IGF-1R; test: Immunoblotting of IGF-1R phosphorylation in starved, IGF-1-stimulated LP1 and JJN3 cells; assay type: cell-based; conditions: 100 μM, 2 hr, then IGF-1
Procedure: as §1
To find out whether C98 also interfered with other signaling pathways, we first checked the receptor tyrosine kinase IGF-1R, which mediates PI3K activation in MM cells in the presence of IGF-1. Starved MM cells LP1 and JJN3 were incubated with C98 followed by IGF-1 stimulation. […] Moreover, we also measured the expression of PTEN, a negative regulator of PI3K signaling, in MM cells after C98 treatment.
as §3

[11] = JJN3 xenograft, 40 mg/kg oral daily, 16 days
[12] = JJN3 xenograft, 80 mg/kg oral daily, 16 days

Sequence of recombinant human PI3K isoform γ (P48736 whole entry, canonical isoform): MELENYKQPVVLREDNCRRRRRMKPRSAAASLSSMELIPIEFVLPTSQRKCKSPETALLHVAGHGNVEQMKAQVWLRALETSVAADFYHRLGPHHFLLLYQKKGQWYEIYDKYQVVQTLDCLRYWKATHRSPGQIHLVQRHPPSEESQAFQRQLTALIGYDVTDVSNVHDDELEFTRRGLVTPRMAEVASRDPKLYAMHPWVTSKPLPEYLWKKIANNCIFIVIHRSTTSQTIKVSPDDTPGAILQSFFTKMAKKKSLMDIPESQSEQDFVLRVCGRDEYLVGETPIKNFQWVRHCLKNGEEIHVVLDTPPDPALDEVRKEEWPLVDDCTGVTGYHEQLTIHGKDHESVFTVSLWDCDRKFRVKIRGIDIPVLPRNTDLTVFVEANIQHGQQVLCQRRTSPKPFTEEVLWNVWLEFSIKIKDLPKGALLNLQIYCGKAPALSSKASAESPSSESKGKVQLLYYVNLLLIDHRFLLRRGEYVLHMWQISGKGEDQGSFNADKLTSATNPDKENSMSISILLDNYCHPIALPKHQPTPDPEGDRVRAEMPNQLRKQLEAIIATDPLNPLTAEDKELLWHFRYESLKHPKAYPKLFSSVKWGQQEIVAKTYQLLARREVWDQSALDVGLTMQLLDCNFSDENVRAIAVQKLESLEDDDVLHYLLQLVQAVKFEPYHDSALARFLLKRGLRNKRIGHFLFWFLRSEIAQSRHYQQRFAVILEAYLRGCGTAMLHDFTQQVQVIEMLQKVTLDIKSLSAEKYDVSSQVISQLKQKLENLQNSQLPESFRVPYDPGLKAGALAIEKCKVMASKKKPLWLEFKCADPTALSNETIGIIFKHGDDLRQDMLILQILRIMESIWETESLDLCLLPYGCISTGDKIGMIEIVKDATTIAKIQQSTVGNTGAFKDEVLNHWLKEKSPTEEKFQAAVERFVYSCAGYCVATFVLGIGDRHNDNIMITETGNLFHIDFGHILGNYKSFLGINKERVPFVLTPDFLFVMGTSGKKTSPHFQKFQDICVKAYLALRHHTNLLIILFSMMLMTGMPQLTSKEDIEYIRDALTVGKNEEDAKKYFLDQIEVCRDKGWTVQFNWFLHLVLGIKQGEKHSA

- IC50 [2]: 0.74 µM
- IC50 [4]: 61.4 µM
SMILES: N#C/C(=C\C=C\c1ccc(-c2cc(Cl)ccc2Cl)o1)C(N)=S [C98]
- phosphorylation level of p38 [1]: failed to decrease
- phosphorylation of c-Src [3]: failed to inhibit
- MM cell proliferation (MTT), rescue by IGF-1 [5]: IGF-1 could partly abolish C98-decreased MM cell proliferation
- phosphorylation levels of AKT, mTOR, p70S6K, and 4E-BP1 [6]: downregulated
- AKT phosphorylation in tumors ([7]; JJN3 tumors, both 40 and 80 mg/kg doses, immunoblotting): decreased
- decrease of tumor growth [7, 11]: 48%
- tumor volume [7, 11]: 1293.1 ± 289.7 mm^3
- decreased tumor growth to % [7, 12]: 76.5%
- tumor volume [7, 12]: 581.2 ± 73.2 mm^3
- cleavage of PARP in tumors ([7]; MM tumors excised from C98-treated mice, especially high dose group): cleavage of PARP was found
- caspase-3 activation [8]: activated caspase-3 in a time- and concentration-dependent manner
- suppression of PDK1 activity [9]: failed to suppress
- IGF-1R activation (phosphorylation) [10]: had no effects on IGF-1R activation

Source: article PMC4381587, “A novel PI3K inhibitor PIK-C98 displays potent preclinical activity against multiple myeloma” (Oncotarget, 2014)
